Laboratory results as given in patent publication US5488060A, “Substituted thiadiazoles, compositions containing them and their use as antimicrobial and marine antifouling agents” (The Dow Chemical Company, priority 1994, dated 1996).
Values after ≈ are worked out from the molar mass of the structure shown. Where two headings read alike, the source gives them in different places.

Legend:
Assay type in all cases: cell-based
Bacillus subtilis (Bs) = test: Minimum inhibitory concentration (MIC) in nutrient agar, Bacillus subtilis
Outline: (§1)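 Agar dilution; nutrient agar at pH 6.8 (neutral) and pH 8.2 (alkaline, tricine-buffered). Compound from 1% acetone/water stock, final 500–1.0 ppm. Inoculum 10^8 CFU/mL via Steer's replicator. 30° C, 48 h; growth/no growth read.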

[1] = tested on: Enterobacter aerogenes (Ea); test: Minimum inhibitory concentration (MIC) in nutrient agar, Enterobacter aerogenes; details: Klebsiella aerogenes, 48 h
Outline: as §1

Escherichia coli (Ec) = test: Minimum inhibitory concentration (MIC) in nutrient agar, Escherichia coli
Outline: as §1

[2] = tested on: Klebsiella pneumoniae (Kp); test: Minimum inhibitory concentration (MIC) in nutrient agar, Klebsiella pneumoniae
Outline: as §1

Proteus vulgaris (Pv) = test: Minimum inhibitory concentration (MIC) in nutrient agar, Proteus vulgaris; details: 48 h
Outline: as §1

[3] = tested on: Pseudomonas aeruginosa (PRD-10); test: Minimum inhibitory concentration (MIC) in nutrient agar, Pseudomonas aeruginosa PRD-10; details: 48 h
Outline: as §1

[4] = tested on: Pseudomonas aeruginosa (Pa); test: Minimum inhibitory concentration (MIC) in nutrient agar, Pseudomonas aeruginosa; details: 30° C., 48 hours, read-out: Minimum Inhibitory Concentration, Pa
Outline: as §1

[5] = tested on: Salmonella choleraesuis (Se); test: Minimum inhibitory concentration (MIC) in nutrient agar, Salmonella choleraesuis; details: Salmonella enterica, 48 h
Outline: as §1

[6] = tested on: Staphylococcus aureus (Sa); test: Minimum inhibitory concentration (MIC) in nutrient agar, Staphylococcus aureus; details: 30° C., 48 hours, read-out: Minimum Inhibitory Concentration, Sa
Outline: as §1

Aspergillus niger (An) = test: Minimum inhibitory concentration (MIC) in malt yeast agar, Aspergillus niger; details: 72 h, pH 5.5, read-out: Minimum Inhibitory Concentration, An
Outline: (§2)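 Fungal inocula from 7-day malt yeast agar cultures (30° C) were suspended in saline with octylphenoxy polyethoxy ethanol, diluted 1:9, and spotted onto malt yeast agar (pH 5.5) containing test compound at 0–500 ppm. Growth assessed after 72 hours at 30° C to give MIC.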

Candida albicans (Ca) = test: Minimum inhibitory concentration (MIC) in malt yeast agar, Candida albicans; details: 48 h, pH 5.5, read-out: Minimum Inhibitory Concentration, Ca
Outline: (§3)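 Plates of pH 5.5 malt yeast agar carried test compound dispersed from a one percent acetone–water solution, final 500 to zero ppm. After diluted slant-culture suspensions were applied, plates were kept at 30 °C and examined at 72 h for fungi, 48 h for yeast.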

[7] = tested on: Penicillium chrysogenum (Pc); test: Minimum inhibitory concentration (MIC) in malt yeast agar, Penicillium chrysogenum; details: pH 5.5; malt yeast agar, 30° C., 72 hours for fungi; read-out: Minimum Inhibitory Concentration, PC
Outline: as §2

[8] = tested on: Saccharomyces cerevisiae (Sc); test: Minimum inhibitory concentration (MIC) in malt yeast agar, Saccharomyces cerevisiae; details: pH 5.5, malt yeast agar, 30° C., 48 hours for yeast, read-out: Minimum Inhibitory Concentration, SC
Outline: as §3

Trichoderma viride (Tv) = test: Minimum inhibitory concentration (MIC) in malt yeast agar, Trichoderma viride; details: 72 h, pH 5.5, read-out: Minimum Inhibitory Concentration, Tv
Outline: as §2

[9] = tested on: Aureobasidium pullulan (Ap); test: Minimum inhibitory concentration (MIC) in malt yeast agar, Aureobasidium pullulan; details: pH 5.5; malt yeast agar, 30° C.; read-out: Minimum Inhibitory Concentration, Ap
Outline: as §2

Fusarium oxysporum (Fo) = test: Minimum inhibitory concentration (MIC) in malt yeast agar, Fusarium oxysporum; details: 72 h, pH 5.5, read-out: Minimum Inhibitory Concentration, Fo
Outline: as §2

Question: Which results are given for N#CSCSc1nsnc1-c1cccnc1 [Example XXXI, 4-(3-Pyridyl)-3-thiocyanatomethylthio-1,2,5-thiadiazole]?
Answer: MIC (Bacillus subtilis (Bs); 48 h, pH 8.2, read-out: Minimum Inhibitory Concentration, Bs): 25 µg/mL (≈ 93.9 µM); MIC (Bacillus subtilis (Bs); pH 6.8, nutrient agar, 30° C., 48 hours, read-out: Minimum Inhibitory Concentration, Bs): 50 µg/mL (≈ 188 µM); MIC ([1]; pH 6.8, read-out: Minimum Inhibitory Concentration, Ea): 500 µg/mL (≈ 1880 µM); MIC ([1]; pH 8.2, read-out: Minimum Inhibitory Concentration, Ea): > 500 µg/mL; MIC (Escherichia coli (Ec); 48 h, pH 6.8, read-out: Minimum Inhibitory Concentration, Ec): 500 µg/mL (≈ 1880 µM); MIC (Escherichia coli (Ec); pH 8.2, nutrient agar, 30° C., 48 hours, read-out: Minimum Inhibitory Concentration, Ec): 250 µg/mL (≈ 939 µM); MIC ([2]; 48 h, pH 8.2, read-out: Minimum Inhibitory Concentration, Kp): > 500 µg/mL; MIC ([2]; pH 6.8, nutrient agar, 30° C., 48 hours, read-out: Minimum Inhibitory Concentration, Kp): 500 µg/mL (≈ 1880 µM); MIC (Proteus vulgaris (Pv); pH 6.8, read-out: Minimum Inhibitory Concentration, Pv): 500 µg/mL (≈ 1880 µM); MIC (Proteus vulgaris (Pv); pH 8.2, read-out: Minimum Inhibitory Concentration, Pv): > 500 µg/mL; MIC ([3]; pH 6.8, read-out: Minimum Inhibitory Concentration, PRD): 500 µg/mL (≈ 1880 µM); MIC ([3]; pH 8.2, read-out: Minimum Inhibitory Concentration, PRD): > 500 µg/mL; MIC ([4]; pH 6.8, nutrient agar): 500 µg/mL (≈ 1880 µM); MIC ([4]; pH 8.2, nutrient agar): > 500 µg/mL; MIC ([5]; pH 6.8, read-out: Minimum Inhibitory Concentration, SC): 500 µg/mL (≈ 1880 µM); MIC ([5]; pH 8.2, read-out: Minimum Inhibitory Concentration, SC): > 500 µg/mL; MIC ([6]; pH 6.8, nutrient agar): 100 µg/mL (≈ 375 µM); MIC ([6]; pH 8.2, nutrient agar): 50 µg/mL (≈ 188 µM); MIC (Aspergillus niger (An)): 25 µg/mL (≈ 93.9 µM); MIC (Candida albicans (Ca)): 25 µg/mL (≈ 93.9 µM); MIC [7]: 9 µg/mL (≈ 33.8 µM); MIC [8]: 9 µg/mL (≈ 33.8 µM); MIC (Trichoderma viride (Tv)): 50 µg/mL (≈ 188 µM); MIC [9]: 9 µg/mL (≈ 33.8 µM); MIC (Fusarium oxysporum (Fo)): 25 µg/mL (≈ 93.9 µM)
